Data set [1] can be described thus: H+/Na+ transport assay of bead-derived peptides (one-point).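 Further: relative to parent gramicidin A activity set to 1.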 In kind it is biochemical. More on the design: key: relative activity; mean of two control wells = 1.00. Conditions: bead-derived peptide solution, EYPC/EYPG LUVs. The protocol: (§1) Each type of assay must be simplified and miniaturized to assess the activities of the library peptides in a 96-well format for the high-throughput screening.
H+/Na+ transport assay of bead-derived peptides.1,2,3 Trisodium 8-hydroxypyrene-1,3,6-trisulfonate
mini-extruder apparatus (Avanti Polar Lipids).
28.9 µmol) in CHCl3 (225 µL) and egg yolk phosphatidylglycerol (1.20 mg, 1.56 µmol) in CHCl3 (60.0 µL)
The thin film was hydrated and
1.0 mM pyranine) by sonication.
A suspension of the LUVs was immediately
used for the H+/Na+ transport assay.
The diluted solution of peptide
flat-bottom 96-well plate (655086, Greiner bio-one).
was vortexed at room temperature for 30 min.
(5/95, 3.0 µL) and the LUV suspension were mixed in each plate to determine 100% lysis. The untreated
LUV suspension was used to determine 0% lysis.
normalized against 100% lysis by Triton X-100 (Imax) and 0% lysis (I0) as following, where Ix is the
fluorescence intensity (Supplementary Equation 2).
I = 100 × (Ix – I0) / (Imax – I0) (2)
The mean value of the two control wells was set to 1.00. […]

The test system of data set [2] is P388 mouse leukemia cells. Conditions: 92 h. From the text: Each type of assay must be simplified and miniaturized to assess the activities of the library peptides in a 96-well format for the high-throughput screening. […]
Mammalian cytotoxicity assay of bead-derived peptides . P388 cells were obtained from Institute of
Development Aging and Cancer (Tohoku University). The cells were maintained with growth medium
[RPMI1640 with phenol red ( Fujifilm Wako Pure Chemical) supplemented with 10% heat -inactivated fetal
bovine serum, pe nicillin G (100 units/mL), and streptomycin (100 µg/mL)] under atmosphere of 5% CO 2 at
The collected cells were resuspended into
the growth medium at 2 × 10^4 cells/mL. The stock solutions of the peptide library were 250-fold diluted
with the growth medium. Aliquots of the medium (100 µL) containing peptides and the latter medium
containing P388 cells (100 µL) were mixed in a 96-well cell culture plate (TR5003, TrueLine). The final
concentration of P388 cells was 1 × 10^4 cells/mL. After incubation under atmosphere of 5% CO2 at 37 °C
for 92 h, the numbers of viable cells were determined by
2-(4-iodophenyl)-3-(4-nitrophenyl)-5-(2,4-disulfophenyl)-2H-tetrazolium, monosodium salt (WST-1) assay.
A solution of 1-methoxy-5-methylphenazinium methyl sulfate (1-methoxy PMS) and WST-1 in the growth
medium (1-methoxy PMS 0.70 mg/mL in Milli-Q/WST-1 3.6 mg/mL in pH 7.4 HEPES buffer = 1/9) was
added to each well of the plate (10.0 µL/well). The plate was incubated for 4 h under atmosphere of 5% CO2
at 37 °C. The absorbance of each well at 415 nm was measured using a Benchmark microplate reader
(Bio-Rad). The cytotoxicities were evaluated as cell viability (%). […]

The subject of data set [3] is Streptococcus pyogenes SSI-9. The data set can be described thus: Antibacterial activity assay of bead-derived peptides (three concentrations). It counts as cell-based. More on the design: key: +++: inhibition by the 640-fold diluted peptide solution; ++: inhibition by the 160-fold diluted solution; +: inhibition by the 40-fold diluted solution; -: no inhibition. Conditions: S. pyogenes, bead-derived peptide solution, three concentrations. How it is done: as §1
Next, the peptides in groups A and B were subjected to the antibacterial assay and structural determination. Three peptide concentrations were applied to evaluate the growth inhibition of S. pyogenes and determine the antibacterial activity. […] Finally, the structures of the peptides were determined. […]
Antibacterial activity assay of bead-derived peptides. The stock solution of the peptide library was 4- and […]
16-fold diluted with DMSO. The non-diluted stock solution, 4-fold diluted solution, and 16-fold diluted […]
solution were transferred to the 96-well round-bottom plate (3367, Corning, 1.0 µL/well). To the solution of […]
peptide in each well was added a suspension of Streptococcus pyogenes SSI-9 strain in cation adjusted […]
Mueller Hinton Broth [40.0 µL, 2 × 10^5 colony forming units (CFU), 21 g/L Mueller Hinton Broth (Difco), 50 […]
mg/L Ca2+ (adjusted with CaCl2•2H2O), and 25 mg/L Mg2+ (adjusted with MgCl2•6H2O)] supplemented with […]
5% laked horse blood (Nippon Biotest Laboratories). The plate was incubated at 37 °C for 18 h, and the precipitation of the grown cells was examined. […]

Molecules are shown by their SMILES. Where a SMILES comes first, the peptide text is derived from it. [ ]: non-standard residue; d: D form. The star is where a group is joined. NHCH2CH2OH = OCCN*; For = O=C*

As to `CC(C)C[C@@H](NC(=O)[C@H](C)NC(=O)[C@H](NC(=O)[C@H](C)NC(=O)CNC(=O)[C@@H](NC=O)C(C)C)[C@H](C)O)C(=O)N[C@H](C(=O)N[C@H](CC(C)C)C(=O)N[C@@H](Cc1c[nH]c2ccccc12)C(=O)N[C@@H](C(=O)N[C@@H](Cc1c[nH]c2ccccc12)C(=O)N[C@H](CC(C)C)C(=O)N[C@@H](Cc1c[nH]c2ccccc12)C(=O)N[C@@H](C(=O)N[C@@H](Cc1c[nH]c2ccccc12)C(=O)NCCO)C(C)C)[C@H](C)O)C(C)C` [compound 1284] (For-VGA[dT]A[dL]V[dL]W[dT]W[dL]W[dV]W-NHCH2CH2OH), the “H+/Na+ transport activity normalized against the value of 1 (1.00)” value (shortened to “H+/Na+ transport activity normalized”) in data set [1] was found to be 1.06. Further, in data set [2], the cell viability/% worked out at 71.2%. In addition, the antibacterial activity entry in data set [3] is recorded as “-”.
The corresponding values for `CC(C)C[C@@H](NC(=O)[C@H](C)NC(=O)CNC(=O)[C@@H](NC=O)C(C)C)C(=O)N[C@@H](C)C(=O)N[C@@H](C(=O)N[C@H](C(=O)N[C@@H](C(=O)N[C@@H](Cc1c[nH]c2ccccc12)C(=O)N[C@@H](C(=O)N[C@@H](Cc1c[nH]c2ccccc12)C(=O)N[C@H](CC(C)C)C(=O)N[C@@H](Cc1c[nH]c2ccccc12)C(=O)N[C@@H](C(=O)N[C@@H](Cc1c[nH]c2ccccc12)C(=O)NCCO)C(C)C)C(C)C)C(C)C)C(C)C)C(C)C` [compound 1289] (For-VGA[dL]A[dV]V[dV]W[dV]W[dL]W[dV]W-NHCH2CH2OH) are 1.03, 95.6% and “+”.
The corresponding values for `CC(C)C[C@@H](NC(=O)[C@H](C)NC(=O)[C@H](NC(=O)[C@H](C)NC(=O)CNC(=O)[C@@H](NC=O)C(C)C)C(C)C)C(=O)N[C@H](C(=O)N[C@H](CC(C)C)C(=O)N[C@@H](Cc1c[nH]c2ccccc12)C(=O)N[C@H](CC(C)C)C(=O)N[C@@H](Cc1c[nH]c2ccccc12)C(=O)N[C@H](CC(C)C)C(=O)N[C@@H](Cc1c[nH]c2ccccc12)C(=O)N[C@H](CC(C)C)C(=O)N[C@@H](Cc1c[nH]c2ccccc12)C(=O)NCCO)C(C)C` [compound 1343] (For-VGA[dV]A[dL]V[dL]W[dL]W[dL]W[dL]W-NHCH2CH2OH) are 1.02, 4.0% and “-”.
The corresponding values for `CNC(=O)C[C@@H](NC(=O)[C@@H](NC(=O)[C@@H](CC(C)C)NC(=O)[C@H](C)NC(=O)[C@@H](CC(C)C)NC(=O)[C@H](C)NC(=O)CNC(=O)[C@@H](NC=O)C(C)C)C(C)C)C(=O)N[C@@H](Cc1c[nH]c2ccccc12)C(=O)N[C@H](CC(C)C)C(=O)N[C@@H](Cc1c[nH]c2ccccc12)C(=O)N[C@H](CC(C)C)C(=O)N[C@@H](Cc1c[nH]c2ccccc12)C(=O)N[C@H](CC(C)C)C(=O)N[C@@H](Cc1c[nH]c2ccccc12)C(=O)NCCO` [compound 1400] (For-VGA[dL]A[dL]V[dD](NHMe)W[dL]W[dL]W[dL]W-NHCH2CH2OH) are 1.10, 72.7% and “-”.
As to `CNC(=O)C[C@@H](NC(=O)[C@@H](NC(=O)[C@@H](CC(C)C)NC(=O)[C@H](C)NC(=O)[C@@H](CC(C)C)NC(=O)[C@H](C)NC(=O)CNC(=O)[C@@H](NC=O)C(C)C)C(C)C)C(=O)N[C@@H](Cc1c[nH]c2ccccc12)C(=O)N[C@H](CC(C)C)C(=O)N[C@@H](Cc1c[nH]c2ccccc12)C(=O)N[C@@H](C(=O)N[C@@H](Cc1c[nH]c2ccccc12)C(=O)N[C@H](CC(C)C)C(=O)N[C@@H](Cc1c[nH]c2ccccc12)C(=O)NCCO)C(C)C` [compound 1479] (For-VGA[dL]A[dL]V[dD](NHMe)W[dL]W[dV]W[dL]W-NHCH2CH2OH), the “H+/Na+ transport activity normalized” value in data set [1] is on record as 1.19. The cell viability/% in data set [2] is 100.0%. In addition, in data set [3], the antibacterial activity entry is “-”.
As for `CC(C)C[C@@H](NC(=O)[C@H](C)NC(=O)[C@H](NC(=O)[C@H](C)NC(=O)CNC(=O)[C@@H](NC=O)C(C)C)[C@H](C)O)C(=O)N[C@H](C(=O)N[C@H](CC(C)C)C(=O)N[C@@H](Cc1c[nH]c2ccccc12)C(=O)N[C@H](CC(C)C)C(=O)N[C@@H](Cc1c[nH]c2ccccc12)C(=O)N[C@@H](C(=O)N[C@@H](Cc1c[nH]c2ccccc12)C(=O)N[C@H](CC(C)C)C(=O)N[C@@H](Cc1c[nH]c2ccccc12)C(=O)NCCO)C(C)C)C(C)C` [compound 1516] (For-VGA[dT]A[dL]V[dL]W[dL]W[dV]W[dL]W-NHCH2CH2OH), the “H+/Na+ transport activity normalized” value in data set [1] was 1.06. This molecule came in with a cell viability/% in data set [2] of 100.0%. In data set [3], the antibacterial activity entry was “-”.
The corresponding values for `CC(C)C[C@@H](NC(=O)[C@H](C)NC(=O)CNC(=O)[C@@H](NC=O)C(C)C)C(=O)N[C@@H](C)C(=O)N[C@@H](C(=O)N[C@H](C(=O)N[C@H](CC(C)C)C(=O)N[C@@H](Cc1c[nH]c2ccccc12)C(=O)N[C@@H](C(=O)N[C@@H](Cc1c[nH]c2ccccc12)C(=O)N[C@H](CC(C)C)C(=O)N[C@@H](Cc1c[nH]c2ccccc12)C(=O)N[C@@H](C(=O)N[C@@H](Cc1c[nH]c2ccccc12)C(=O)NCCO)[C@H](C)O)C(C)C)C(C)C)C(C)C` [compound 1522] (For-VGA[dL]A[dV]V[dL]W[dV]W[dL]W[dT]W-NHCH2CH2OH) are 1.03, 100.0% and “-”.
For the molecule `CC(C)C[C@@H](NC(=O)[C@H](C)NC(=O)CNC(=O)[C@@H](NC=O)C(C)C)C(=O)N[C@@H](C)C(=O)N[C@H](CC(C)C)C(=O)N[C@H](C(=O)N[C@H](CC(C)C)C(=O)N[C@@H](Cc1c[nH]c2ccccc12)C(=O)N[C@@H](C(=O)N[C@@H](Cc1c[nH]c2ccccc12)C(=O)N[C@H](CC(C)C)C(=O)N[C@@H](Cc1c[nH]c2ccccc12)C(=O)N[C@@H](C(=O)N[C@@H](Cc1c[nH]c2ccccc12)C(=O)NCCO)C(C)C)C(C)C)C(C)C` [compound 1751] (For-VGA[dL]A[dL]V[dL]W[dV]W[dL]W[dV]W-NHCH2CH2OH), the “H+/Na+ transport activity normalized” value in data set [1] was determined as 1.05. In data set [2], the cell viability/% worked out at 0.0%. Besides, the antibacterial activity entry in data set [3] is “-”.
The corresponding values for `CC(C)C[C@@H](NC(=O)[C@H](Cc1c[nH]c2ccccc12)NC(=O)[C@H](NC(=O)[C@H](Cc1c[nH]c2ccccc12)NC(=O)[C@@H](CC(C)C)NC(=O)[C@H](Cc1c[nH]c2ccccc12)NC(=O)[C@H](NC(=O)[C@@H](NC(=O)[C@H](NC(=O)[C@H](C)NC(=O)[C@H](NC(=O)[C@H](C)NC(=O)CNC(=O)[C@@H](NC=O)C(C)C)C(C)C)C(C)C)C(C)C)C(C)C)C(C)C)C(=O)N[C@@H](Cc1c[nH]c2ccccc12)C(=O)NCCO` [compound 1844] (For-VGA[dV]A[dV]V[dV]W[dL]W[dV]W[dL]W-NHCH2CH2OH) are 1.18, 47.9% and “++”.
